Legend:
Assay type in all cases: in vivo
[1] = system: Diabrotica balteata (Corn root worm); assay: Example B1: Diabrotica balteata (Corn root worm), sprayed maize sprouts; settings: 96 h, application rate 200 ppm, L2 larvae, 4 days after infestation, read-out: control in at least one of the two categories (mortality or growth inhibition)
Protocol: Example B1: Diabrotica balteata (Corn root worm)
Maize sprouts placed onto an agar layer in 24-well microtiter plates were treated with aqueous test solutions prepared from 10′000 ppm DMSO stock solutions by spraying. After drying, the plates were infested with L2 larvae (6 to 10 per well). The samples were assessed for mortality and growth inhibition in comparison to untreated samples 4 days after infestation.
(§1) The following compounds gave an effect of at least 80% control in at least one of the two categories (mortality or growth inhibition) at an application rate of 200 ppm: […]

[2] = system: Chilo suppressalis (Striped rice stemborer); assay: Example B4: Chilo suppressalis (Striped rice stemborer), artificial diet; settings: 144 h, application rate 200 ppm, L2 larvae, 6 days after infestation, read-out: control in at least one of the three categories (mortality, anti-feedant effect, or growth inhibition)
Protocol: Example B4: Chilo suppressalis (Striped rice stemborer) 24-well microtiter plates with artificial diet were treated with aqueous test solutions prepared from 10′000 ppm DMSO stock solutions by pipetting. After drying, the plates were infested with L2 larvae (6-8 per well). The samples were assessed for mortality, anti-feeding effect, and growth inhibition in comparison to untreated samples 6 days after infestation. Control of Chilo suppressalis by a test sample is given when at least one of the categories mortality, anti-feedant effect, and growth inhibition is higher than the untreated sample.

[3] = system: Plutella xylostella (Diamond back moth); assay: Example B5: Plutella xylostella (Diamond back moth), artificial diet, 24-well; settings: 192 h, application rate 200 ppm, eggs, 8 days after infestation, read-out: control in at least one of the two categories (mortality or growth inhibition)
Protocol: Example B5: Plutella xylostella (Diamond back moth)
24-well microtiter plates with artificial diet were treated with aqueous test solutions prepared from 10′000 ppm DMSO stock solutions by pipetting. After drying, Plutella eggs were pipetted through a plastic stencil onto a gel blotting paper and the plate was closed with it. The samples were assessed for mortality and growth inhibition in comparison to untreated samples 8 days after infestation.
as §1

[4] = system: Spodoptera littoralis (Egyptian cotton leaf worm); assay: Example B9: Spodoptera littoralis (Egyptian cotton leaf worm), sprayed cotton leaf discs; settings: foliar, 72 h, application rate 200 ppm, L1 larvae, 3 days after infestation, read-out: control in at least one of the three categories (mortality, anti-feedant effect, or growth inhibition)
Protocol: Example B9: Spodoptera littoralis (Egyptian cotton leaf worm)
Cotton leaf discs were placed onto agar in 24-well microtiter plates and sprayed with aqueous test solutions prepared from 10′000 ppm DMSO stock solutions. After drying the leaf discs were infested with five L1 larvae. The samples were assessed for mortality, anti-feeding effect, and growth inhibition in comparison to untreated samples 3 days after infestation. Control of Spodoptera littoralis by a test sample is given when at least one of the categories mortality, anti-feedant effect, and growth inhibition is higher than the untreated sample.

CC(NC(=O)c1cc(C(F)(F)F)cc(C(F)(F)C2CC2)c1)c1ncnn1-c1ccc(C#N)cn1 (stereo not shown) [P4, N-[1-[2-(5-cyano-2-pyridyl)-1,2,4-triazol-3-yl]ethyl]-3-[cyclopropyl(difluoro)methyl]-5-(trifluoromethyl)benzamide]
≥ 80%: percent control (mortality or growth inhibition) at 200 ppm [1] | percent control (mortality, anti-feedant effect or growth inhibition) at 200 ppm [2] | percent control (mortality or growth inhibition) at 200 ppm [3] | percent control (mortality, anti-feedant effect or growth inhibition) at 200 ppm [4]

CC(NC(=O)c1cc(C(F)(F)F)nc(C2(C#N)CC2)c1)c1ncnn1-c1ncc(OC(F)F)cn1 (stereo not shown) [P8, 2-(1-cyanocyclopropyl)-N-[1-[2-[5-(difluoromethoxy)pyrimidin-2-yl]-1,2,4-triazol-3-yl]ethyl]-6-(trifluoromethyl) pyridine-4-carboxamide]
≥ 80%: percent control (mortality or growth inhibition) at 200 ppm [1] | percent control (mortality, anti-feedant effect or growth inhibition) at 200 ppm [2] | percent control (mortality or growth inhibition) at 200 ppm [3] | percent control (mortality, anti-feedant effect or growth inhibition) at 200 ppm [4]

CC(NC(=O)c1cc(C(F)(F)F)nc(C2(C#N)CC2)c1)c1ncnn1-c1ncc(OCC(F)F)cn1 (stereo not shown) [P10, 2-(1-cyanocyclopropyl)-N-[1-[2-[5-(2,2-difluoroethoxy)pyrimidin-2-yl]-1,2,4-triazol-3-yl]ethyl]-6-(trifluoromethyl) pyridine-4-carboxamide]
≥ 80%: percent control (mortality or growth inhibition) at 200 ppm [1] | percent control (mortality, anti-feedant effect or growth inhibition) at 200 ppm [2] | percent control (mortality or growth inhibition) at 200 ppm [3] | percent control (mortality, anti-feedant effect or growth inhibition) at 200 ppm [4]

CC(NC(=O)c1cc(C(F)(F)F)cc(C(F)(F)C2CC2)c1)c1ncnn1-c1ncc(OCC(F)F)cn1 (stereo not shown) [P11, 3-[cyclopropyl(difluoro)methyl]-N-[1-[2-[5-(2,2-difluoroethoxy)pyrimidin-2-yl]-1,2,4-triazol-3-yl]ethyl]-5-(trifluoromethyl) benzamide]
≥ 80%: percent control (mortality or growth inhibition) at 200 ppm [1] | percent control (mortality, anti-feedant effect or growth inhibition) at 200 ppm [2] | percent control (mortality or growth inhibition) at 200 ppm [3] | percent control (mortality, anti-feedant effect or growth inhibition) at 200 ppm [4]

CC(NC(=O)c1cc(C2CC2C(F)(F)F)cc(C(F)(F)F)c1)c1ncnn1-c1ccc(C#N)cn1 (stereo not shown) [P13, N-[1-[2-(5-cyano-2-pyridyl)-1,2,4-triazol-3-yl]ethyl]-3-(trifluoromethyl)-5-[2-(trifluoromethyl)cyclopropyl]benzamide]
≥ 80%: percent control (mortality or growth inhibition) at 200 ppm [1] | percent control (mortality, anti-feedant effect or growth inhibition) at 200 ppm [2] | percent control (mortality or growth inhibition) at 200 ppm [3] | percent control (mortality, anti-feedant effect or growth inhibition) at 200 ppm [4]

CC(NC(=O)c1cc(C2CC2)nc(C(F)(F)F)c1)c1ncnn1-c1ccc(C#N)cn1 (stereo not shown) [P15, N-[1-[2-(5-cyano-2-pyridyl)-1,2,4-triazol-3-yl]ethyl]-2-cyclopropyl-6-(trifluoromethyl)pyridine-4-carboxamide]
≥ 80%: percent control (mortality or growth inhibition) at 200 ppm [1] | percent control (mortality, anti-feedant effect or growth inhibition) at 200 ppm [2] | percent control (mortality or growth inhibition) at 200 ppm [3] | percent control (mortality, anti-feedant effect or growth inhibition) at 200 ppm [4]

CC(NC(=O)c1cc(C(F)(F)F)cc(S(=O)(=O)C(F)(F)F)c1)c1ncnn1-c1ncc(OCC(F)F)cn1 (stereo not shown) [P16, N-[1-[2-[5-(2,2-difluoroethoxy)pyrimidin-2-yl]-1,2,4-triazol-3-yl]ethyl]-3-(trifluoromethyl)-5-(trifluoromethylsulfonyl) benzamide]
≥ 80%: percent control (mortality or growth inhibition) at 200 ppm [1] | percent control (mortality, anti-feedant effect or growth inhibition) at 200 ppm [2] | percent control (mortality or growth inhibition) at 200 ppm [3] | percent control (mortality, anti-feedant effect or growth inhibition) at 200 ppm [4]

CC(NC(=O)c1cc(C(F)(F)F)nc(C2(C#N)CC2)c1)c1ncnn1-c1ccc(OC(F)F)cn1 (stereo not shown) [P17, 2-(1-cyanocyclopropyl)-N-[1-[2-[5-(difluoromethoxy)-2-pyridyl]-1,2,4-triazol-3-yl]ethyl]-6-(trifluoromethyl) pyridine-4-carboxamide]
≥ 80%: percent control (mortality or growth inhibition) at 200 ppm [1] | percent control (mortality, anti-feedant effect or growth inhibition) at 200 ppm [2] | percent control (mortality or growth inhibition) at 200 ppm [3] | percent control (mortality, anti-feedant effect or growth inhibition) at 200 ppm [4]

CC(NC(=O)c1cc(C(F)(F)F)cc(C2(C#N)CC2)c1)c1ncnn1-c1ccc(C#N)cn1 (stereo not shown) [P18, 3-(1-cyanocyclopropyl)-N-[1-[2-(5-cyano-2-pyridyl)-1,2,4-triazol-3-yl]ethyl]-5-(trifluoromethyl) benzamide]
≥ 80%: percent control (mortality, anti-feedant effect or growth inhibition) at 200 ppm [2] | percent control (mortality or growth inhibition) at 200 ppm [3] | percent control (mortality, anti-feedant effect or growth inhibition) at 200 ppm [4]

CC(NC(=O)c1cc(C(F)(F)F)cc(C(F)(F)C2CC2)c1)c1ncnn1-c1ccc(OC(F)F)cn1 (stereo not shown) [P19, 3-[cyclopropyl(difluoro)methyl]-N-[1-[2-[5-(difluoromethoxy)-2-pyridyl]-1,2,4-triazol-3-yl]ethyl]-5-(trifluoromethyl) benzamide]
≥ 80%: percent control (mortality, anti-feedant effect or growth inhibition) at 200 ppm [2] | percent control (mortality or growth inhibition) at 200 ppm [3] | percent control (mortality, anti-feedant effect or growth inhibition) at 200 ppm [4]

CC(NC(=O)c1cc(C(F)(F)F)cc(C(F)(F)C2CC2)c1)c1ncnn1-c1ncc(OCC(F)(F)F)cn1 (stereo not shown) [P20, 3-[cyclopropyl(difluoro)methyl]-N-[1-[2-[5-(2,2,2-trifluoroethoxy)pyrimdin-2-yl]-1,2,4-triazol-3-yl]ethyl]-5-(trifluoromethyl) benzamide]
≥ 80%: percent control (mortality, anti-feedant effect or growth inhibition) at 200 ppm [2] | percent control (mortality or growth inhibition) at 200 ppm [3] | percent control (mortality, anti-feedant effect or growth inhibition) at 200 ppm [4]

CC(NC(=O)c1cc(C2CC2)cc(C(F)(F)F)c1)c1ncnn1-c1ncc(OCC(F)F)cn1 (stereo not shown) [P23, 3-cyclopropyl-N-[1-[2-[5-(2,2-difluoroethoxy)pyrimidin-2-yl]-1,2,4-triazol-3-yl]ethyl]-5-(trifluoromethyl) benzamide]
≥ 80%: percent control (mortality or growth inhibition) at 200 ppm [1] | percent control (mortality, anti-feedant effect or growth inhibition) at 200 ppm [2] | percent control (mortality or growth inhibition) at 200 ppm [3] | percent control (mortality, anti-feedant effect or growth inhibition) at 200 ppm [4]

CC(NC(=O)c1cc(C(F)(F)F)cc(C2(C#N)CC2)c1)c1ncnn1-c1ncc(OCC(F)(F)F)cn1 (stereo not shown) [P25, 3-(1-cyanocyclopropyl)-N-[1-[2-[5-(2,2,2-trifluoroethoxy)pyrimidin-2-yl]-1,2,4-triazol-3-yl]ethyl]-5-(trifluoromethyl) benzamide]
≥ 80%: percent control (mortality, anti-feedant effect or growth inhibition) at 200 ppm [2] | percent control (mortality or growth inhibition) at 200 ppm [3] | percent control (mortality, anti-feedant effect or growth inhibition) at 200 ppm [4]

CC(NC(=O)c1cc(C(F)(F)F)cc(C2(C#N)CC2)c1)c1ncnn1-c1ncc(OC(F)F)cn1 (stereo not shown) [P26, 3-(1-cyanocyclopropyl)-N-[1-[2-[5-(difluoromethoxy)pyrimidin-2-yl]-1,2,4-triazol-3-yl]ethyl]-5-(trifluoromethyl) benzamide]
≥ 80%: percent control (mortality, anti-feedant effect or growth inhibition) at 200 ppm [2] | percent control (mortality or growth inhibition) at 200 ppm [3] | percent control (mortality, anti-feedant effect or growth inhibition) at 200 ppm [4]

CC(NC(=O)c1cc(C(F)(F)F)nc(C2(C#N)CC2)c1)c1ncnn1-c1ncc(OCC(F)(F)F)cn1 (stereo not shown) [P30, 2-(1-cyanocyclopropyl)-N-[1-[2-[5-(2,2,2-trifluoroethoxy)pyrimidin-2-yl]-1,2,4-triazol-3-yl]ethyl]-6-(trifluoromethyl) pyridine-4-carboxamide]
≥ 80%: percent control (mortality or growth inhibition) at 200 ppm [3] | percent control (mortality, anti-feedant effect or growth inhibition) at 200 ppm [4]

CC(NC(=O)c1cc(C(F)(F)F)cc(C2(C#N)CC2)c1)c1ncnn1-c1ncc(OCC(F)F)cn1 (stereo not shown) [P31, 3-(1-cyanocyclopropyl)-N-[1-[2-[5-(2,2-difluoroethoxy)pyrimidin-2-yl]-1,2,4-triazol-3-yl]ethyl]-5-(trifluoromethyl) benzamide]
≥ 80%: percent control (mortality, anti-feedant effect or growth inhibition) at 200 ppm [2] | percent control (mortality or growth inhibition) at 200 ppm [3]
